pIC50: −log10 of the molar value.
Experiments:
786-0 = experiment: Growth inhibition of human 786-0 cells assessed as cell growth at 0.1 uM incubated for 48 hrs by sulforhodamine B assay relative to control; type: functional; conditions: 786-0, 48 h, read-out: Activity
OVCAR-4 = experiment: Growth inhibition of human OVCAR4 cells assessed as cell growth at 0.01 uM incubated for 48 hrs by sulforhodamine B assay relative to control; type: functional; conditions: OVCAR-4, 48 h, read-out: Activity
HOP-62 = experiment: Growth inhibition of human HOP62 cells incubated for 48 hrs by sulforhodamine B assay; type: functional, cell-based; conditions: HOP-62, 48 h
MCF7 [1] = experiment: Growth inhibition of human MCF7 cells incubated for 48 hrs by sulforhodamine B assay; type: functional, cell-based; conditions: MCF7, 48 h
A549 [2] = experiment: Growth inhibition of human A549/ATCC cells assessed as cell growth at 1 uM incubated for 48 hrs by sulforhodamine B assay relative to control; type: functional; conditions: A549, 48 h, read-out: Activity
SNB-75 = experiment: Growth inhibition of human SNB75 cells assessed as cell growth at 0.1 uM incubated for 48 hrs by sulforhodamine B assay relative to control; type: functional; conditions: SNB-75, 48 h, read-out: Activity
UO-31 = experiment: Growth inhibition of human UO31 cells assessed as cell growth at 0.01 uM incubated for 48 hrs by sulforhodamine B assay relative to control; type: functional; conditions: UO-31, 48 h, read-out: Activity
Hs-578T = experiment: Growth inhibition of human Hs578T cells assessed as cell growth at 0.01 uM incubated for 48 hrs by sulforhodamine B assay relative to control; type: functional; conditions: read-out: Activity
NCI-H460 [3] = experiment: Growth inhibition of human NCI-H460 cells incubated for 48 hrs by sulforhodamine B assay; type: functional, cell-based; conditions: NCI-H460, 48 h
MCF7 [4] = experiment: Growth inhibition of human MCF7 cells assessed as cell growth at 1 uM incubated for 48 hrs by sulforhodamine B assay relative to control; type: functional; conditions: MCF7, 48 h, read-out: Activity
CCRF-CEM = experiment: Growth inhibition of human CCRF-CEM cells incubated for 48 hrs by sulforhodamine B assay; type: functional, cell-based
ACHN [5] = experiment: Growth inhibition of human ACHN cells assessed as cell growth at 1 uM incubated for 48 hrs by sulforhodamine B assay relative to control; type: functional; conditions: read-out: Activity
A549 [6] = experiment: Growth inhibition of human A549/ATCC cells assessed as cell growth at 0.01 uM incubated for 48 hrs by sulforhodamine B assay relative to control; type: functional; conditions: A549, 48 h, read-out: Activity
SK-MEL-5 = experiment: Growth inhibition of human SK-MEL-5 cells incubated for 48 hrs by sulforhodamine B assay; type: functional, cell-based; conditions: SK-MEL-5, 48 h
HL-60(TB) = experiment: Growth inhibition of human HL-60(TB) cells assessed as cell growth at 1 uM incubated for 48 hrs by sulforhodamine B assay relative to control; type: functional; conditions: HL-60, 48 h, read-out: Activity
HCC 2998 = experiment: Growth inhibition of human HCC2998 cells assessed as cell growth at 1 uM incubated for 48 hrs by sulforhodamine B assay relative to control; type: functional; conditions: HCC 2998, 48 h, read-out: Activity
NCI-H23 = experiment: Growth inhibition of human NCI-H23 cells assessed as cell growth at 100 uM incubated for 48 hrs by sulforhodamine B assay relative to control; type: functional; conditions: NCI-H23, 48 h, read-out: Activity
NCI-H460 [7] = experiment: Growth inhibition of human NCI-H460 cells assessed as cell growth at 1 uM incubated for 48 hrs by sulforhodamine B assay relative to control; type: functional; conditions: NCI-H460, 48 h, read-out: Activity
BT-549 = experiment: Growth inhibition of human BT549 cells assessed as cell growth at 1 uM incubated for 48 hrs by sulforhodamine B assay relative to control; type: functional; conditions: BT-549, 48 h, read-out: Activity
M14 = experiment: Growth inhibition of human M14 cells assessed as cell growth at 0.01 uM incubated for 48 hrs by sulforhodamine B assay relative to control; type: functional; conditions: M14, 48 h, read-out: Activity
UACC-62 = experiment: Growth inhibition of human UACC62 cells assessed as cell growth at 0.1 uM incubated for 48 hrs by sulforhodamine B assay relative to control; type: functional; conditions: UACC-62, 48 h, read-out: Activity
MDA-MB-468 = experiment: Growth inhibition of human MDA-MB-468 cells incubated for 48 hrs by sulforhodamine B assay; type: functional, cell-based; conditions: MDA-MB-468, 48 h
PC-3 [8] = experiment: Growth inhibition of human PC3 cells assessed as cell growth at 0.1 uM incubated for 48 hrs by sulforhodamine B assay relative to control; type: functional; conditions: PC-3, 48 h, read-out: Activity
ACHN [9] = experiment: Growth inhibition of human ACHN cells assessed as cell growth at 0.01 uM incubated for 48 hrs by sulforhodamine B assay relative to control; type: functional; conditions: read-out: Activity
PC-3 [10] = experiment: Growth inhibition of human PC3 cells assessed as cell growth at 0.01 uM incubated for 48 hrs by sulforhodamine B assay relative to control; type: functional; conditions: PC-3, 48 h, read-out: Activity
HCT-15 = experiment: Growth inhibition of human HCT15 cells incubated for 48 hrs by sulforhodamine B assay; type: functional, cell-based; conditions: HCT-15, 48 h
DU-145 = experiment: Growth inhibition of human DU145 cells assessed as cell growth at 0.01 uM incubated for 48 hrs by sulforhodamine B assay relative to control; type: functional; conditions: DU-145, 48 h, read-out: Activity
CAKI-1 = experiment: Growth inhibition of human Caki1 cells assessed as cell growth at 0.01 uM incubated for 48 hrs by sulforhodamine B assay relative to control; type: functional; conditions: CAKI-1, 48 h, read-out: Activity
NCI-H226 = experiment: Growth inhibition of human NCI-H226 cells assessed as cell growth at 0.01 uM incubated for 48 hrs by sulforhodamine B assay relative to control; type: functional; conditions: NCI-H226, 48 h, read-out: Activity
[11] = read-out: LC50 (the source's name)
[12] = read-out: pLC50 (the source's name) (converted)

## O=C(Nc1cccc(-n2cc(-c3ccncc3)c(-c3cc(O)cc(Cl)c3)n2)c1)Nc1ccc(Cl)c(C(F)(F)F)c1
786-0
  growth at 0.1 µM: 95%
OVCAR-4
  growth at 0.01 µM: 99%
HOP-62; read-out: GI50
  GI50: 3.06 µM
HOP-62; [11]
  CC50: > 100 µM
HOP-62; read-out: TGI
  TGI: 13.4 µM
HOP-62; read-out: pGI50 (converted)
  GI50: 3.09 µM
HOP-62; [12]
  CC50: > 100 µM
HOP-62; read-out: pTGI (converted)
  TGI: 13.5 µM
MCF7 [1]; read-out: GI50
  GI50: 2.53 µM
MCF7 [1]; read-out: LC50
  LC50: > 100 µM
MCF7 [1]; read-out: TGI
  TGI: 85.4 µM
MCF7 [1]; read-out: pGI50 (converted)
  GI50: 2.63 µM
MCF7 [1]; read-out: pLC50 (converted)
  LC50: > 100 µM
MCF7 [1]; read-out: pTGI (converted)
  TGI: 8.51 µM
A549 [2]
  growth at 1 µM: 81%
SNB-75
  growth at 0.1 µM: 88%
UO-31
  growth at 0.01 µM: 93%
Hs-578T
  growth at 0.01 µM: 95%
NCI-H460 [3]; read-out: GI50
  GI50: 2.59 µM
NCI-H460 [3]; [11]
  CC50: 85.8 µM
NCI-H460 [3]; read-out: TGI
  TGI: 73.7 µM
NCI-H460 [3]; read-out: pGI50 (converted)
  GI50: 2.57 µM
NCI-H460 [3]; [12]
  CC50: 87.1 µM
NCI-H460 [3]; read-out: pTGI (converted)
  TGI: 7.41 µM
MCF7 [4]
  growth at 1 µM: 91%
CCRF-CEM; read-out: GI50
  GI50: 2.73 µM
CCRF-CEM; [11]
  CC50: > 100 µM
CCRF-CEM; read-out: TGI
  TGI: 85 µM
CCRF-CEM; read-out: pGI50 (converted)
  GI50: 2.75 µM
CCRF-CEM; [12]
  CC50: > 100 µM
CCRF-CEM; read-out: pTGI (converted)
  TGI: 8.91 µM
ACHN [5]
  growth at 1 µM: 92%
A549 [6]
  growth at 0.01 µM: 101%
SK-MEL-5; read-out: GI50
  GI50: 1.59 µM
SK-MEL-5; [11]
  CC50: 51.5 µM
SK-MEL-5; read-out: TGI
  TGI: 32.3 µM
SK-MEL-5; read-out: pGI50 (converted)
  GI50: 1.7 µM
SK-MEL-5; [12]
  CC50: 6.17 µM
SK-MEL-5; read-out: pTGI (converted)
  TGI: 3.24 µM
HL-60(TB)
  growth at 1 µM: 113%
HCC 2998
  growth at 1 µM: 106%
NCI-H23
  growth at 100 µM: -55%
NCI-H460 [7]
  growth at 1 µM: 96%
BT-549
  growth at 1 µM: 90%
M14
  growth at 0.01 µM: 97%
UACC-62
  growth at 0.1 µM: 102%
MDA-MB-468
  pIC50: 5.68
MDA-MB-468; read-out: GI50
  GI50: 2.05 µM
MDA-MB-468; [11]
  CC50: > 100 µM
MDA-MB-468; read-out: TGI
  TGI: 84.2 µM
MDA-MB-468; read-out: pGI50 (converted)
  GI50: 2.63 µM
MDA-MB-468; [12]
  CC50: > 100 µM
MDA-MB-468; read-out: pTGI (converted)
  TGI: 8.51 µM
PC-3 [8]
  growth at 0.1 µM: 98%
ACHN [9]
  growth at 0.01 µM: 104%
PC-3 [10]
  growth at 0.01 µM: 95%
HCT-15; read-out: GI50
  GI50: 2.21 µM
HCT-15; [11]
  CC50: 50.6 µM
HCT-15; read-out: TGI
  TGI: 60.1 µM
HCT-15; read-out: pGI50 (converted)
  GI50: 2.82 µM
HCT-15; [12]
  CC50: 60.3 µM
HCT-15; read-out: pTGI (converted)
  TGI: 6.03 µM
DU-145
  growth at 0.01 µM: 103%
CAKI-1
  growth at 0.01 µM: 102%
NCI-H226
  growth at 0.01 µM: 97%

Reference: ChEMBL document CHEMBL4308841, “Synthesis, in vitro antiproliferative activity, and kinase inhibitory effects of pyrazole-containing diarylureas and diarylamides” (Eur J Med Chem, 2018)
